The record followed here is ChEMBL document CHEMBL5465560, “Selectivity Literature for EUbOPEN Chemogenomic Library” (2024).

For test [1], the target named is RAC-gamma serine/threonine-protein kinase (Homo sapiens, UniProt Q9Y243). Briefly: Selectivity interaction (Upstate Kinase Profiler service (Millipore)) EUB0000056c AKT3. To be noted: at 1 µM.
Test [2] deals with Mast/stem cell growth factor receptor Kit (Homo sapiens, UniProt P10721). The experiment in a line: Selectivity interaction (Ambit KINOMEscan and KiNATiv profiling in Jurkat cells) EUB0000090b KIT. Type of test: cell-based. To be noted: at 1 µM.
Test [3] deals with Tyrosine-protein kinase Fes/Fps (Homo sapiens) (UniProt P07332). The experiment in a line: Selectivity interaction (KinaseProfiler screening (Millipore)) EUB0000601a FES. To be noted: at 3 µM.
For test [4], the system named is Phosphatidylinositol 4,5-bisphosphate 3-kinase catalytic subunit alpha isoform (Homo sapiens), P42336 [I800L]. To be noted: at 10 µM.
Test [5] addresses 5-hydroxytryptamine receptor 1B (Homo sapiens) (UniProt P28222). Briefly: Selectivity interaction (Panel of kinases, GPCRs, ion channels and transporters (enzymatic assay)) EUB0000223bCl HTR1B.
In test [6] the target is T1, Dual specificity tyrosine-phosphorylation-regulated kinase 2 (Homo sapiens) (UniProt Q92630).
T1 sequence (whole entry): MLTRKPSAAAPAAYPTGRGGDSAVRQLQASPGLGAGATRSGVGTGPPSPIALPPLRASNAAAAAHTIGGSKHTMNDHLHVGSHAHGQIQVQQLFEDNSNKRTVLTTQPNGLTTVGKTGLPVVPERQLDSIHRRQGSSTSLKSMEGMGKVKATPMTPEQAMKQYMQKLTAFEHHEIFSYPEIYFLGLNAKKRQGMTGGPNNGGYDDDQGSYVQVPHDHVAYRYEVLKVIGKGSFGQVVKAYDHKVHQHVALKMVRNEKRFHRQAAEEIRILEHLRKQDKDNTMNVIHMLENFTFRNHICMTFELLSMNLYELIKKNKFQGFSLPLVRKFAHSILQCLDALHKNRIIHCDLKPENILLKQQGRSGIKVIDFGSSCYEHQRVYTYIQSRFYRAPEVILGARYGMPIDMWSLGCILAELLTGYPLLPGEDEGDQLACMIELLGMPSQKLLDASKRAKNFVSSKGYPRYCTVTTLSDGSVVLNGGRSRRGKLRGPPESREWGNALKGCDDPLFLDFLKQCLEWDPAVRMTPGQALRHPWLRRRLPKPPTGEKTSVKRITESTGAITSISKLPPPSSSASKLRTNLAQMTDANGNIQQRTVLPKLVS
Briefly: Selectivity interaction (KinomeScan (DiscoverX)) EUB0000045b DYRK2.

For test [7], the target named is T2, Serine/threonine-protein kinase LATS1 (Homo sapiens) (UniProt O95835).
T2 sequence (whole entry): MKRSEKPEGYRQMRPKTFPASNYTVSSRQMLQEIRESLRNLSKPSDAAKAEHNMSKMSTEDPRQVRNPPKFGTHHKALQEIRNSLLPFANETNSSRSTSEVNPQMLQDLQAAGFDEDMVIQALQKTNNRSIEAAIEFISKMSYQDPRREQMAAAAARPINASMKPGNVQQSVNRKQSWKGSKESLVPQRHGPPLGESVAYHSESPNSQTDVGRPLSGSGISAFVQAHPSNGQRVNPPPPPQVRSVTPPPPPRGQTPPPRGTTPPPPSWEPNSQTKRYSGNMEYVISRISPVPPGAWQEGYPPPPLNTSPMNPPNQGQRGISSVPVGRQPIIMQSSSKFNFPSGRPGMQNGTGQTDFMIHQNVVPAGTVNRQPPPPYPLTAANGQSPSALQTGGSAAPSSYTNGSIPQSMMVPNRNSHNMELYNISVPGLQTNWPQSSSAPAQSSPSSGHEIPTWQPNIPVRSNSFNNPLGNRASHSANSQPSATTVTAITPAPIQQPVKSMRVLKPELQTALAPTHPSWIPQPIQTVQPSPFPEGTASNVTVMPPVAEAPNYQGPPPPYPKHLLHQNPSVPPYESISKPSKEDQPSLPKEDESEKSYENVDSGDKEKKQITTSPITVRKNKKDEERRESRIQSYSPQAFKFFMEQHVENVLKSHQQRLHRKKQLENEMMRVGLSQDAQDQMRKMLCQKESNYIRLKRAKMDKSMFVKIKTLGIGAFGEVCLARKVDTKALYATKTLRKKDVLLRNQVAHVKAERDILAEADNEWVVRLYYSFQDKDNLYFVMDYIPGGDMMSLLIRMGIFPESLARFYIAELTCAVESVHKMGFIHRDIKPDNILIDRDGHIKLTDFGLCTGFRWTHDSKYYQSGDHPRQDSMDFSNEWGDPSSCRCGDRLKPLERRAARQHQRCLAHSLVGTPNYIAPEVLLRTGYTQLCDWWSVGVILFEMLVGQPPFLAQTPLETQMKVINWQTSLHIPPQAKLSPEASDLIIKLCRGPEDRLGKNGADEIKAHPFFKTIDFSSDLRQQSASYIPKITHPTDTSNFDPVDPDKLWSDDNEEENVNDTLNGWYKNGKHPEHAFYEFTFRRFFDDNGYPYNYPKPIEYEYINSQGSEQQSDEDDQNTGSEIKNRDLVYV
Briefly: Selectivity interaction (KinomeScan (DiscoverX)) EUB0000045b LATS1.

Test [8] concerns the target Serine/threonine-protein kinase SIK1 (Homo sapiens) (UniProt P57059). The experiment in a line: Selectivity interaction (KinomeScan (DiscoverX)) EUB0000666a SIK1. To be noted: at 10 µM.
Test [9] has as its target Serine/threonine-protein kinase PLK1 (Homo sapiens, UniProt P53350). The experiment in a line: Selectivity interaction (ActivX KiNativ screen (kinase selectivity in THP-1 cell lysates)) EUB0000639a PLK1. Type of test: subcellular. The following applies: lysate, at 0.01 µM.

Chain of 5-hydroxytryptamine receptor 1B (Homo sapiens) (P28222 whole entry): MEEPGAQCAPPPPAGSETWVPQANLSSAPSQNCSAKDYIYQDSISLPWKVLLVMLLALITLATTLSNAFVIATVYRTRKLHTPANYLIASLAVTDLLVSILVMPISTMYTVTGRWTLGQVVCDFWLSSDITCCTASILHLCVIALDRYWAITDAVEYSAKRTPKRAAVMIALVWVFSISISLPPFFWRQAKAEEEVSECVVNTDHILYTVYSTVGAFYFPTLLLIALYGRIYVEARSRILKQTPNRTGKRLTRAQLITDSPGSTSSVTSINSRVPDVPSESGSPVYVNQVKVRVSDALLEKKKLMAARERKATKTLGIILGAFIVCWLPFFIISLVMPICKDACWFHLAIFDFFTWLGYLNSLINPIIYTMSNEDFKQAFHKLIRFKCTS
Chain of Serine/threonine-protein kinase PLK1 (P53350 whole entry): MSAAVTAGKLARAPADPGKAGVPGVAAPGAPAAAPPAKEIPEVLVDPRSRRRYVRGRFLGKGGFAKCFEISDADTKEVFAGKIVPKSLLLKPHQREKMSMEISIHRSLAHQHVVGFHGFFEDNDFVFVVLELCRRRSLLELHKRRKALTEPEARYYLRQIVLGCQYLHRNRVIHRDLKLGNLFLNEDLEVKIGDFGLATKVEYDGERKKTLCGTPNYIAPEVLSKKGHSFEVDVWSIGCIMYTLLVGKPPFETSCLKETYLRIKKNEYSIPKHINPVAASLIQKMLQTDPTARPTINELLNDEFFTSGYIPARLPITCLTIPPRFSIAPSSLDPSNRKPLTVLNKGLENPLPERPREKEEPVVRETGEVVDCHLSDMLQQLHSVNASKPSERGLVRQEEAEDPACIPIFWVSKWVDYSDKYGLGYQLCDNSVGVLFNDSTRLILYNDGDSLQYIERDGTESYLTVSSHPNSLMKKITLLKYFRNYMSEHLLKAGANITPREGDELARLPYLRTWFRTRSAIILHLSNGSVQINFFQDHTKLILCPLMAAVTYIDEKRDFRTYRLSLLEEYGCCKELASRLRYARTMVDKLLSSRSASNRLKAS
Chain of Phosphatidylinositol 4,5-bisphosphate 3-kinase catalytic subunit alpha isoform (Homo sapiens), P42336 [I800L] (P42336 whole entry I800L, canonical isoform): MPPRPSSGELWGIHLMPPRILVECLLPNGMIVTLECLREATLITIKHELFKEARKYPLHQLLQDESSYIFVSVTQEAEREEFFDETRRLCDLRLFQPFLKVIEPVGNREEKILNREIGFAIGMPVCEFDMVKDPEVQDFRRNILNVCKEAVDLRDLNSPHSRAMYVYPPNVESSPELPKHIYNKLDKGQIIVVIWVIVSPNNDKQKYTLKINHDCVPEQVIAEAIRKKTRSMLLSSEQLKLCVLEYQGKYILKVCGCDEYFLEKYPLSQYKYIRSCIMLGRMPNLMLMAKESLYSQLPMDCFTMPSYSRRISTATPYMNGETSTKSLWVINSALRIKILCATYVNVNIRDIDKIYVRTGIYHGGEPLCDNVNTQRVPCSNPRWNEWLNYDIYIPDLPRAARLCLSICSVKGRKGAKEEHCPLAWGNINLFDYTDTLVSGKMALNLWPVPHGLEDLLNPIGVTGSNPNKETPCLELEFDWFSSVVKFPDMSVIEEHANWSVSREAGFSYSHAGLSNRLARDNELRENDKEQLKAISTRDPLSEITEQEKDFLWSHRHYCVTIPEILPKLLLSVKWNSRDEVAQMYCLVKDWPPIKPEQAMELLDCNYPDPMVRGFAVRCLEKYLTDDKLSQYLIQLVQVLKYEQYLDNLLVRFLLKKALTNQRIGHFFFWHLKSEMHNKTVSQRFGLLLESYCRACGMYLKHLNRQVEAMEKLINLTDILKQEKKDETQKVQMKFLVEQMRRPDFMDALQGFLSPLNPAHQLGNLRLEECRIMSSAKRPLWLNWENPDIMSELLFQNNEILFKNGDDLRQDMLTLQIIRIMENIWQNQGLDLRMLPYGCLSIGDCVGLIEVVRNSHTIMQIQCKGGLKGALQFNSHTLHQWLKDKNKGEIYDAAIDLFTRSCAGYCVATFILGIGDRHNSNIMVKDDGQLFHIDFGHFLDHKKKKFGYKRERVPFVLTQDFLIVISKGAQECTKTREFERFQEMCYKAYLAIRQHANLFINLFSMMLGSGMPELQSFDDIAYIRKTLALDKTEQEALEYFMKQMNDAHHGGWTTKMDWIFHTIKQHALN
Chain of Mast/stem cell growth factor receptor Kit (P10721 whole entry): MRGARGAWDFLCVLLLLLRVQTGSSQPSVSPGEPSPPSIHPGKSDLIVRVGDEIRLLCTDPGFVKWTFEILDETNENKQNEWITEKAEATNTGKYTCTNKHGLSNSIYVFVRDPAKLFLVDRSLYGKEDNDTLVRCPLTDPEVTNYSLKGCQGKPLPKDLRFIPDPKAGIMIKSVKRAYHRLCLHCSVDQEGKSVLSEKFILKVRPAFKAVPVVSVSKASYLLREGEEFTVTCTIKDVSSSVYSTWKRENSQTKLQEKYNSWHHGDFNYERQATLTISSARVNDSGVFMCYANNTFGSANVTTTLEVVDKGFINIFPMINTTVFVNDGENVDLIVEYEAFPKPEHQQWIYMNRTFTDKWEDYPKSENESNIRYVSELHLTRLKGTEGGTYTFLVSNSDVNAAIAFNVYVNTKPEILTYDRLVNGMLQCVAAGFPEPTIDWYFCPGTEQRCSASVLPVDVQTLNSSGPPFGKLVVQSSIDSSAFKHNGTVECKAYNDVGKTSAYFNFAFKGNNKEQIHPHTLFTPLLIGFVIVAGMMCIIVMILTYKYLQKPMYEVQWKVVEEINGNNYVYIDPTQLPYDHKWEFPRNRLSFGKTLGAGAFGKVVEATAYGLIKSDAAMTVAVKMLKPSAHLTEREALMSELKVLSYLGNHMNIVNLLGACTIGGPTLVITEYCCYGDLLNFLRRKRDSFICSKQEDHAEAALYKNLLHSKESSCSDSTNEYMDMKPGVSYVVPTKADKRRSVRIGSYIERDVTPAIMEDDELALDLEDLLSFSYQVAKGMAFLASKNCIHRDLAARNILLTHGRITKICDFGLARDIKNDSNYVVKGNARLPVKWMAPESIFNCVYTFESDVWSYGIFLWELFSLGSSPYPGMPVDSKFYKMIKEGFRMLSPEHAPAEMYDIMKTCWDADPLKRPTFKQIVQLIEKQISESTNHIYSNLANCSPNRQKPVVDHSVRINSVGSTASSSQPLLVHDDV
Chain of Serine/threonine-protein kinase SIK1 (Homo sapiens) (P57059 whole entry): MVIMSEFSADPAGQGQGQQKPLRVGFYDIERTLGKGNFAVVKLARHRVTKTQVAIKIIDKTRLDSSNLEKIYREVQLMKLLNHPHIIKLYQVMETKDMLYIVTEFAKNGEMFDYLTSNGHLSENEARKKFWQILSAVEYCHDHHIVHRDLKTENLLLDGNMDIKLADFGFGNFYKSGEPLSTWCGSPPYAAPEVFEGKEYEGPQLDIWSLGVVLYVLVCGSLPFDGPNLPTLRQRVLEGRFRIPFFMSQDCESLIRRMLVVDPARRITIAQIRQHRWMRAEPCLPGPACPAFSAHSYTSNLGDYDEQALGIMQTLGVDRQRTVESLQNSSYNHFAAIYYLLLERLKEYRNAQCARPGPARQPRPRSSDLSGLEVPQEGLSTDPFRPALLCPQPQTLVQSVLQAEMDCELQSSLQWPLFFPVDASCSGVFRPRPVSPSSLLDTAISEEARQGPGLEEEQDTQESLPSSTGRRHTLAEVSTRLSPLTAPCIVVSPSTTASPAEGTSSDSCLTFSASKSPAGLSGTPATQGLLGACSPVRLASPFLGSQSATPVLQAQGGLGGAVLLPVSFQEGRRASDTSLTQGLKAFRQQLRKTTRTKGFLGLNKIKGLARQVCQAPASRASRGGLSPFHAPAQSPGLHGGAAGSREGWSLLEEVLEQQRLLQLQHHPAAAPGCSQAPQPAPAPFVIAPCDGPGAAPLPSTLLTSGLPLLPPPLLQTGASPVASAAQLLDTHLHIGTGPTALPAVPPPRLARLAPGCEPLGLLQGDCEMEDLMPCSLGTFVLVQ
Chain of RAC-gamma serine/threonine-protein kinase (Q9Y243 whole entry): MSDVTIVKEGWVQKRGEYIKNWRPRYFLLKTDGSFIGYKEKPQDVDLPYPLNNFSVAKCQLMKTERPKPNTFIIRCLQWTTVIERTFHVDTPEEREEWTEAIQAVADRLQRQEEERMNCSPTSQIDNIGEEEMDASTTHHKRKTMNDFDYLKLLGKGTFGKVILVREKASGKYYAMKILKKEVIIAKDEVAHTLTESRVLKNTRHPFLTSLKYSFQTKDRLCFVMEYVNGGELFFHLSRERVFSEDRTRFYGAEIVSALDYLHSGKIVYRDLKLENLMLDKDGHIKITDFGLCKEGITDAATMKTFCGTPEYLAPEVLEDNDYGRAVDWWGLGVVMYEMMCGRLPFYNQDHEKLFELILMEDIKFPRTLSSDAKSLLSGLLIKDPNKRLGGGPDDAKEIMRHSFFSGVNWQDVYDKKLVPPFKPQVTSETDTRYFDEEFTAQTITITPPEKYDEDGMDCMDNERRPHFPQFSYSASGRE

Consider `Cc1ccc(-c2ccc3c(ccc4sc5c(c43)NC[C@@H](C)NC5=O)n2)cn1`, for which, in test [1], the % of inhibition came out at 0%.
Turning to `CN(C)C/C=C/C(=O)Nc1ccc(C(=O)N2CCCC(Nc3ncc(Cl)c(-c4c[nH]c5ccccc45)n3)C2)cc1` (stereo unspecified), the % of control in test [2] came out at 93%.
Regarding `CCc1cc(Nc2nccc(-c3c(-c4ccc(OC)c(C(=O)Nc5c(F)cccc5F)c4)nc4ccccn34)n2)c(OC)cc1N1CCC(N2CCN(S(C)(=O)=O)CC2)CC1`, in test [3], the % of inhibition came out at 82%.
Compound `CCC(=O)N1CCN(c2ccc(-n3c(=O)ccc4cnc5ccc(-c6cnc7ccccc7c6)cc5c43)cc2C(F)(F)F)CC1` showed a % of control in test [4] of 0%.
In test [5], `COc1cc(C(=O)N2CC[C@@H](O)[C@@H](N)C2)cc2nc(-c3cc4ccccc4n3CC3CC3)n(C)c12` yielded a pXC50 of 4.7 M.
As for `C=CC(=O)Nc1cc(-n2c(=O)ccc3cnc4ccc(-c5ccc(NS(C)(=O)=O)cc5)cc4c32)ccc1C`, the % of control came to 100% in [6] (at 1 µM), 91% in test [6] (at 10 µM), 100% in test [7] (at 1 µM) and 100% in test [7] (at 10 µM).
`O=C(NOC[C@H](O)CO)c1ccc(F)c(F)c1Nc1ccc(I)cc1F`: the % of control in [8] was 100%.
On to `CC[C@@H]1[C@H](F)C(=O)N[C@@H]1COc1nccc2cc(C(N)=O)c(OC)cc12` [ZIMLOVISERTIB], for which the % of inhibition in [9] is -0.3%.
